Target: T1, Thymidine phosphorylase (TP) (Escherichia coli, UniProt P07650)
T1 construct: purchased Sigma Aldrich, USA
Test: Thymidine phosphorylase inhibition assay (spectrophotometric, 290 nm)
Format: biochemical, E. coli
Settings: for Thymidine Phosphorylase Inhibitory Activity % Inhibition / TP inhibitory activity (in words): E. coli TP; for Thymidine Phosphorylase Inhibitory Activity % Inhibition / inhibition at 500 µM: test compound 10 µL of 0.5 mM in 200 µL, thymidine substrate, 30 °C, pH 7.0; for inhibition at 500 µM: pH 7, E. coli TP, read-out: Thymidine Phosphorylase Inhibitory Activity % Inhibition; for TP inhibitory activity (in words): inactive = less than 50% inhibition
Protocol: Thymidine phosphorylase (source: E. coli, EC Number 2.4.2.4), thymidine (substrate), and potassium phosphate monobasic (as buffer) were acquired from Sigma Aldrich, USA. […] Dimethylsulfoxide (DMSO), used as a solvent, was obtained from Fisher Scientific, Schwerte, Germany.
Reaction was performed in 96-well plates and in triplicates. The 200 µL reaction mixture was comprised of 10 µL of the test compound (0.5 mM; dissolved in DMSO), 150 µL of potassium phosphate buffer (pH 7.0, 50 mM), and 20 µL of TP enzyme (0.058 unit/well). The 96-well plate containing all these reagents was then incubated at 30 °C for 10 min.
SoftMax Pro 4.8 software (Molecular Devices, San Jose, CA, USA) was used to analyse the results.
EZ-FIT, enzyme kinetics software (Perrella Scientific, Inc., Amherst, GA, USA) was used to calculate the IC50 values. In order to analyse the kinetic parameter, Grafit version 7.0 (Erithacus Software Ltd., Horley, UK) was used.

T1 sequence (P07650 whole entry): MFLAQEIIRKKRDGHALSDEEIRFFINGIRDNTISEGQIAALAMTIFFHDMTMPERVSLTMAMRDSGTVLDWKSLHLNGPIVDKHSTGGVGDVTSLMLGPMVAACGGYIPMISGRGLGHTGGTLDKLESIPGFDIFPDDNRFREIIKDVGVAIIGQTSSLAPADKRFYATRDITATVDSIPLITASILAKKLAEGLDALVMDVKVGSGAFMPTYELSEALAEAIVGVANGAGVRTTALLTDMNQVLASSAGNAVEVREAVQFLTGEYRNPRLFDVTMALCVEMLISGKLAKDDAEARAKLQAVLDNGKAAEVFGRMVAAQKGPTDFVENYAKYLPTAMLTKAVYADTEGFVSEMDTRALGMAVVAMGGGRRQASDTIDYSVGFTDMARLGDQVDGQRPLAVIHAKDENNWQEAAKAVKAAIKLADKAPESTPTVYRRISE

Row | SMILES | Thymidine Phosphorylase Inhibitory Activity % Inhibition [%] | inhibition at 500 µM [%] | TP inhibitory activity (in words)
1 | COC(=O)C1=C(C)NC(=O)NC1c1ccc2ccccc2c1 (centres unmarked) [Compound 3, Methyl 6-methyl-4-(naphthalen-2-yl)-2-oxo-1,2,3,4-tetrahydropyrimidine-5-carboxylate] | 38.1 |  | 
2 | COC(=O)C1=C(C)NC(=O)NC1c1cccs1 (centres unmarked) [Compound 27, Methyl 6-methyl-2-oxo-4-(thiophen-2-yl)-1,2,3,4-tetrahydropyrimidine-5-carboxylate] |  | 47.1 | 
3 | COC(=O)C1=C(C)NC(=O)NC1c1ccc(C(C)C)cc1 (centres unmarked) [Compound 19, Methyl 4-(4-isopropylphenyl)-6-methyl-2-oxo-1,2,3,4-tetrahydropyrimidine-5-carboxylate] |  | -18.5 | 
4 | COC(=O)C1=C(C)NC(=O)NC1c1cccc(OCc2ccccc2)c1 (centres unmarked) [Compound 31, Methyl 4-(3-(benzyloxy)phenyl)-6-methyl-2-oxo-1,2,3,4-tetrahydropyrimidine-5-carboxylate] |  | -41.9 | 
5 | COC(=O)C1=C(C)NC(=O)NC1c1c(Cl)cccc1Cl (centres unmarked) [Compound 18, Methyl 4-(2,6-dichlorophenyl)-6-methyl-2-oxo-1,2,3,4-tetrahydropyrimidine-5-carboxylate] |  | -15.4 | inactive
6 | CCC1NC(=O)NC(C)=C1C(=O)OC (centres unmarked) [Compound 4, Methyl 4-ethyl-6-methyl-2-oxo-1,2,3,4-tetrahydropyrimidine-5-carboxylate] |  | 46.8 | 
7 | COC(=O)C1=C(C)NC(=O)NC1c1cc(OC)ccc1OC (centres unmarked) [Compound 17, Methyl 4-(2,5-dimethoxyphenyl)-6-methyl-2-oxo-1,2,3,4-tetrahydropyrimidine-5-carboxylate] |  | 46.5 | 
8 | COC(=O)C1=C(C)NC(=O)NC1c1ccc(Cl)cc1Cl (centres unmarked) [Compound 39, Methyl 4-(2,4-dichlorophenyl)-6-methyl-2-oxo-1,2,3,4-tetrahydropyrimidine-5-carboxylate] |  | -1.8 | inactive
9 | COC(=O)C1=C(C)NC(=O)NC1c1ccccc1OC (centres unmarked) [Compound 7, Methyl 4-(2-methoxyphenyl)-6-methyl-2-oxo-1,2,3,4-tetrahydropyrimidine-5-carboxylate] |  | -19.3 | 
10 | COC(=O)C1=C(C)NC(=O)NC1c1ccccc1OCc1ccccc1 (centres unmarked) [Compound 36, Methyl 4-(2-(benzyloxy)phenyl)-6-methyl-2-oxo-1,2,3,4-tetrahydropyrimidine-5-carboxylate] |  | 5.3 | 
11 | COC(=O)C1=C(C)NC(=O)NC1c1ccccc1Cl (centres unmarked) [Compound 6, Methyl 4-(2-chlorophenyl)-6-methyl-2-oxo-1,2,3,4-tetrahydropyrimidine-5-carboxylate] |  | -65.3 | inactive
12 | COC(=O)C1=C(C)NC(=O)NC1c1ccccc1F (centres unmarked) [Compound 35, Methyl 4-(2-fluorophenyl)-6-methyl-2-oxo-1,2,3,4-tetrahydropyrimidine-5-carboxylate] |  | 9.6 | activity was lost
13 | COC(=O)C1=C(C)NC(=O)NC1c1ccc2ccccc2c1 (centres unmarked) [Compound 8, Methyl 6-methyl-4-(naphthalen-2-yl)-2-oxo-1,2,3,4-tetrahydropyrimidine-5-carboxylate] | −10.3 |  | 
14 | COC(=O)C1=C(C)NC(=O)NC1c1ccc(OC)c(OCc2ccccc2)c1 (centres unmarked) [Compound 23, Methyl 4-(3-(benzyloxy)-4-methoxyphenyl)-6-methyl-2-oxo-1,2,3,4-tetrahydropyrimidine-5-carboxylate] |  | 7.5 | 
15 | COC(=O)C1=C(C)NC(=O)NC1c1ccc(F)c(OC)c1 (centres unmarked) [Compound 16, Methyl 4-(4-fluoro-3-methoxyphenyl)-6-methyl-2-oxo-1,2,3,4-tetrahydropyrimidine-5-carboxylate] |  | 47.8 | 
16 | COC(=O)C1=C(C)NC(=O)NC1c1cccc(O)c1 (centres unmarked) [Compound 15, Methyl 4-(3-hydroxyphenyl)-6-methyl-2-oxo-1,2,3,4-tetrahydropyrimidine-5-carboxylate] |  | 38.9 | 

Source: article PMC10143232, “Dihydropyrimidone Derivatives as Thymidine Phosphorylase Inhibitors: Inhibition Kinetics, Cytotoxicity, and Molecular Docking” (Molecules, 2023)
